# Experimental data from ChEMBL document CHEMBL3813609, “Efficient protein knockdown of HaloTag-fused proteins using hybrid molecules consisting of IAP antagonist and HaloTag ligand” (Bioorg Med Chem, 2016).
# Calls of active or inactive are those of the source. No cut-off for these calls is given here. Where a SMILES comes first, the peptide text is derived from it. [ ]: non-standard residue; d: D form. The star is where a group is joined. Dip = N[C@H](C(=O)O)C(c1ccccc1)c1ccccc1; X2 = ClCCCCCCOCCOCCOCCOCCOCCN*; Chg = N[C@H](C(=O)O)C1CCCCC1; NMeA = CN[C@@H](C)C(=O)O; X1 = ClCCCCCCOCCOCCOCCN*
# Columns and labels:
# Type in all cases: cell-based
# [1] = target: Cyclic AMP-responsive element-binding protein 1 (Homo sapiens) (UniProt P16220); assay: Induction of degradation of halo-tagged CREB1 (unknown origin) expressed in HEK293 cells at 10 uM by Western blot analysis
# Chain of Cyclic AMP-responsive element-binding protein 1 (Homo sapiens) (P16220 whole entry): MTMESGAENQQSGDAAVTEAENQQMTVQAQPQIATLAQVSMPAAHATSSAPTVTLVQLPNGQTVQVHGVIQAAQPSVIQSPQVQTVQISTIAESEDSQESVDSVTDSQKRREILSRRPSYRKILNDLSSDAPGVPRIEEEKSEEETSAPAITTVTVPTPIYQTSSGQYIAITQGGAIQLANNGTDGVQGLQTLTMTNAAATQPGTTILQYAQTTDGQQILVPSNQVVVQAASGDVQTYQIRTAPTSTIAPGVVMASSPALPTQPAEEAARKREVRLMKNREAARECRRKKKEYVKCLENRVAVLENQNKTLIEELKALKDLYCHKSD
# [2] = target: Transcription factor Jun (Homo sapiens) (UniProt P05412); assay: Induction of degradation of halo-tagged c-jun (unknown origin) expressed in HEK293 cells assessed as time required to reduce level of halo-tagged c-jun at 10 uM by Western blot analysis
# Chain of Transcription factor Jun (Homo sapiens) (P05412 whole entry): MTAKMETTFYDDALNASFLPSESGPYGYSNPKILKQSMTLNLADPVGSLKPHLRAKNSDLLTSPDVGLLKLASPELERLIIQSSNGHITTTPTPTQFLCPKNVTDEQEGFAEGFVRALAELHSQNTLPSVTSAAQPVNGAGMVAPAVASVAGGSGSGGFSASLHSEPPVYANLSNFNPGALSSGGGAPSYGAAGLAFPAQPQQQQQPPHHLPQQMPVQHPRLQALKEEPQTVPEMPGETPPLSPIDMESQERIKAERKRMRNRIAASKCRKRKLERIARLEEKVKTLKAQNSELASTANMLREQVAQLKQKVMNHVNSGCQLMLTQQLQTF
# [3] = target: Tumor necrosis factor (Homo sapiens) (UniProt P01375); assay: Induction of degradation of halo-tagged human TNFalpha expressed in HEK293 cells at 30 uM after 6 hrs by Western blot analysis
# Chain of Tumor necrosis factor (Homo sapiens) (P01375 whole entry): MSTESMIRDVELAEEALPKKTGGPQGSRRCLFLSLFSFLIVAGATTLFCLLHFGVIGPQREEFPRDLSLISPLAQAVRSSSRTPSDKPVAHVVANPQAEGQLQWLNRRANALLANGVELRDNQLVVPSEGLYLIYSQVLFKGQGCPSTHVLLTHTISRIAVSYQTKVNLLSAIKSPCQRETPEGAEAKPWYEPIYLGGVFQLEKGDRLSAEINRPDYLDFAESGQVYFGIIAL
# [4] = target: Tumor necrosis factor (Homo sapiens) (UniProt P01375); assay: Induction of degradation of halo-tagged TNFalpha (unknown origin) expressed in HEK293 cells at 10 uM after 24 hrs by Western blot analysis
# [5] = target: Tumor necrosis factor (Homo sapiens) (UniProt P01375); assay: Induction of degradation of halo-tagged human TNFalpha expressed in HEK293 cells at 1 uM after 6 hrs by Western blot analysis
# [6] = target: Tumor necrosis factor (Homo sapiens) (UniProt P01375); assay: Induction of degradation of halo-tagged human TNFalpha expressed in HEK293 cells at 1 uM after 6 hrs by Western blot analysis in presence of proteasome inhibitor MG132
# [7] = target: Cell division control protein 42 homolog (Homo sapiens) (UniProt P60953); assay: Induction of degradation of halo-tagged human Cdc42 expressed in HEK293 cells at 1 uM after 6 hrs by Western blot analysis
# Chain of Cell division control protein 42 homolog (Homo sapiens) (P60953 whole entry, looked up): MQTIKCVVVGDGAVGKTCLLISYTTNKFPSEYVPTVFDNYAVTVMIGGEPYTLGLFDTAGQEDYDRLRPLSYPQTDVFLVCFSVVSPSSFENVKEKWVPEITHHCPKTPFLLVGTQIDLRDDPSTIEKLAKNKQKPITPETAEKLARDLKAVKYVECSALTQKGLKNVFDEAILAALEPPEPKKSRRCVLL
# [8] = target: Tumor necrosis factor (Homo sapiens) (UniProt P01375); assay: Increase in level of halo-tagged human TNFalpha expressed in HEK293 cells at 0.1 to 0.3 uM after 6 hrs by Western blot analysis
# [9] = target: Tumor necrosis factor (Homo sapiens) (UniProt P01375); assay: Induction of degradation of halo-tagged human TNFalpha expressed in HEK293 cells after 6 hrs by Western blot analysis
# HEK293 [10] = assay: Induction of degradation of bacterial haloalkane dehalogenase expressed in HEK293 cells at 1 uM after 6 hrs by Western blot analysis; details: Bacteria
# HEK293 [11] = assay: Increase in level of bacterial haloalkane dehalogenase expressed in HEK293 cells at 0.1 to 0.3 uM after 6 hrs by Western blot analysis; details: Bacteria
structure (smiles),measurement,setting,value
CC(C)C[C@H](NC(=O)[C@@H](O)[C@H](N)Cc1ccccc1)C(=O)NCCOCCOCCOCCCCCCCl,Activity,[1],Active
same,TIME,[2],21 h
CC(C)C[C@H](NC(=O)[C@@H](O)[C@H](N)Cc1ccccc1)C(=O)NCCOCCOCCOCCOCCCCCCCl,Activity,[1],Active
same,Activity,[3],inactive
same,Activity,[4],Active
same,TIME,[2],21 h
CC(C)C[C@H](NC(=O)[C@@H](O)[C@H](N)Cc1ccccc1)C(=O)NCCOCCOCCOCCOCCOCCCCCCCl,Activity,[1],Active
same,TIME,[2],21 h
CC(C)C[C@H](NC(=O)[C@@H](O)[C@H](N)Cc1ccccc1)C(=O)NCCOCCOCCOCCOCCOCCOCCCCCCCl,Activity,[1],Active
same,TIME,[2],21 h
NCCOCCOCCOCCCCCCCl,Activity,[5],inactive
CN[C@@H](C)C(=O)N[C@H](C(=O)N1CCC[C@H]1C(=O)N[C@H](C(=O)NCCOCCOCCOCCCCCCCl)C(c1ccccc1)c1ccccc1)C1CCCCC1 (H-[NMeA][Chg]P[Dip]-X1),Activity,[6],inactive
same,Activity,[7],inactive
same,Activity,[8],Active
same,Activity,[9],Dose-dependent effect
same,Activity,HEK293 [10],Active
same,Activity,HEK293 [11],Active
CN[C@@H](C)C(=O)N[C@H](C(=O)N1CCC[C@H]1C(=O)N[C@H](C(=O)NCCOCCOCCOCCOCCOCCCCCCCl)C(c1ccccc1)c1ccccc1)C1CCCCC1 (H-[NMeA][Chg]P[Dip]-X2),Activity,[5],inactive
same,Activity,[7],Active
same,Activity,[8],Active
same,Activity,HEK293 [10],Active
same,Activity,HEK293 [11],Active
"CN[C@@H](C)C(=O)NC(C(=O)N1CCC[C@H]1C(=O)N[C@H](C(=O)OC)C(c1ccccc1)c1ccccc1)C1CCCCC1 (single isomer, unassigned)",Activity,[5],inactive
